Consider 23 compounds from US7605272B2, “IGF-1R inhibitor” (Kyowa Hakko Kirin Co., Ltd., priority 2005, dated 2009).

Where two headings read alike, the source gives them in different places.

In one experiment the test system is KMS-11. Briefly: Cytostatic activity on human multiple myeloma cell line KMS-11 (WST-1). Type of experiment: cell-based. The settings on record: for inhibition at 1 µM / inhibition at 10 µM: Homo sapiens, KMS-11, 72 h; for inhibition at 1 µM: read-out: cytostatic rate (%) KMS-11 (1 μmol/L); for inhibition at 10 µM: 10 μmol/L, read-out: cytostatic rate (%) KMS-11 (10 μmol/L). The method, boiled down:
(§1)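 Cytostatic rate is 100 minus % growth relative to DMSO-only wells (100%) and blank wells (0%), read by WST-1 absorbance at 450/690 nm after 2 h. Compound at 1 or 10 μmol/L final was applied for 72 h at 37 °C to cells seeded 24 h earlier.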
(Formazan colour is commonly taken as a measure of viable cells.)

Another experiment relates to NCI-H929. Put plainly: Cytostatic activity on human multiple myeloma cell line NCI-H929 (WST-1). The settings on record: for inhibition at 1 µM / inhibition at 10 µM: Homo sapiens, NCI-H929, 72 h; for inhibition at 1 µM: read-out: cytostatic rate (%) H929 (1 μmol/L); for inhibition at 10 µM: 10 μmol/L, read-out: cytostatic rate (%) H929 (10 μmol/L). Format: cell-based. Put shortly:
as §1

A further experiment concerns the target T1, IGF-1R (Homo sapiens, UniProt P08069).
T1 construct: purchased Upstate Co. 14-465
Briefly: IGF-1R inhibitory activity (kinase reaction, time-resolved fluoroimmunoassay). Format: biochemical. Conditions: test compound 10 μmol/L. The method, boiled down: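 Compounds were tested at a single 10 μmol/L concentration. Each was incubated with recombinant IGF-1R (200 μg/L), 10 mmol/L ATP, MgCl2/MnCl2 and Na3VO4 (pH 7.5) on immobilized poly(Glu-Tyr) peptide for 30 min at 24° C. Eu-anti-phosphotyrosine time-resolved fluorescence (340/615 nm) gave relative activity against no-compound and no-enzyme wells, reported as % inhibition.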

The mark [1] stands for this setting: IGF-1R active recombinant enzyme.
Setting [2] is: KMS-11 cells, test compound 1 μmol/L, WST-1.
Setting [3] is: NCI-H929 cells, test compound 1 μmol/L, WST-1.

T1 sequence (P08069 959-1367 limits assumed): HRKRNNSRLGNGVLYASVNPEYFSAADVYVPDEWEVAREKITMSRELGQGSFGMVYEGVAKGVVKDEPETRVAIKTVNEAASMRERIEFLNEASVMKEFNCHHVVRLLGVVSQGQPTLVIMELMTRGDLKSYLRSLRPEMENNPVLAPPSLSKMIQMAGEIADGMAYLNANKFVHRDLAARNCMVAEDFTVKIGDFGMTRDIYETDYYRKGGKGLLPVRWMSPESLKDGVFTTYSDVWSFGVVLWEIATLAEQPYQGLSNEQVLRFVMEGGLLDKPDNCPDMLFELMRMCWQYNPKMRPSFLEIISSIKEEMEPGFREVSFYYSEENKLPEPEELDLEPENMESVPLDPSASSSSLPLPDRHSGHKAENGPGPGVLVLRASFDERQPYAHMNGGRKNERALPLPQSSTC

For `Cc1ccsc1C(=O)Nc1cc(CN2CCN(C[C@H](O)CO)CC2)ccc1/C=C/c1n[nH]c2ccccc12` [Compound 302, (E)-(S)—N-{5-[4-(2,3-dihydroxypropyl)piperazin-1-ylmethyl]-2-[2-(1H-indazol-3-yl)vinyl]phenyl}-3-methylthiophene-2-carboxamide], the inhibition at 1 µM in the experiment on KMS-11 (1 μmol/L, 72 hours) is 99.4%; in the experiment on NCI-H929 (1 μmol/L, 72 hours), 115%. For the same compound, the inhibition at 10 µM at IGF-1R (setting [1]) was found to be 101%.
As to `O=C(Nc1ccccc1/C=C/c1n[nH]c2ccccc12)c1ccccc1F` [Compound 8, (E)-2-fluoro-N-{2-[2-(1H-indazol-3-yl)vinyl]phenyl}benzamide], the inhibition at 10 µM in the experiment with KMS-11 (72 hours) was found to be 126%; in the experiment with NCI-H929 (72 hours) it was 118%; at IGF-1R (setting [1]) it was 99.5%.
Take `Cc1ccsc1C(=O)Nc1cc(C(=O)N(CCO)CCN2CCOCC2)ccc1/C=C/c1n[nH]c2ccccc12` [Compound 259, (E)-N-{5-[N-(2-hydroxyethyl)-N-(2-morpholinoethyl)carbamoyl]-2-[2-(1H-indazol-3-yl)vinyl]phenyl}-3-methylthiophene-2-carboxamide]: the inhibition at 1 µM in the experiment with KMS-11 (1 μmol/L, 72 hours) is 104%; with NCI-H929 (1 μmol/L, 72 hours), 118%. The inhibition at 10 µM on IGF-1R (setting [1]) was found to be 102%.
As for `COc1cc(/C=C/c2n[nH]c3ccccc23)c(NC(=O)c2sccc2C)cc1OCCN1CCOCC1` [Compound 293, (E)-N-{2-[2-(1H-indazol-3-yl)vinyl]-4-methoxy-5-[2-(morpholin-4-yl)ethoxy]phenyl}-3-methylthiophene-2-carboxamide], the inhibition at 1 µM was determined as 119% with KMS-11 (1 μmol/L, 72 hours) and 110% with NCI-H929 (1 μmol/L, 72 hours). At IGF-1R (setting [1]), the inhibition at 10 µM was found to be 98.9%.
For `Cc1ccsc1C(=O)Nc1cc(CN2CCN(C)C(=O)C2)ccc1/C=C/c1n[nH]c2ccccc12` [Compound 329, (E)-N-{2-[2-(1H-indazol-3-yl)vinyl]-5-(4-methyl-3-oxopiperazine-1-ylmethyl)phenyl}-3-methylthiophene-2-carboxamide], the inhibition at 1 µM with KMS-11 (setting [2]) worked out at 116%; in the experiment with NCI-H929 (setting [3]), 132%. Besides, on IGF-1R (setting [1]), the inhibition at 10 µM amounted to 105%.
For the compound `Cc1ccsc1C(=O)Nc1cc(C(=O)N(C)C2CCNCC2)ccc1/C=C/c1n[nH]c2ccccc12` [Compound 297, (E)-N-{2-[2-(1H-indazol-3-yl)vinyl]-5-[N-methyl-N-(piperidine-4-yl)carbamoyl]phenyl}-3-methylthiophene-2-carboxamide], the inhibition at 1 µM was determined as 94.5% in the experiment on KMS-11 (1 μmol/L, 72 hours) and 116% in the experiment with NCI-H929 (1 μmol/L, 72 hours). The inhibition at 10 µM on IGF-1R (setting [1]) amounted to 101%.
Consider `O=C(Nc1ccccc1/C=C/c1n[nH]c2ccccc12)C1CCCC1` [Compound 24, (E)-N-{2-[2-(1H-indazol-3-yl)vinyl]phenyl}cyclopentanecarboxamide], for which the results for the inhibition at 10 µM in the experiment with KMS-11 (72 hours), with NCI-H929 (72 hours) and at IGF-1R (setting [1]) were 110%, 116% and 97.4%, respectively.
Turning to `Cc1ccsc1C(=O)Nc1cc(CN2CCN(C)CC2)ccc1/C=C/c1n[nH]c2ccccc12` [Compound 234, (E)-N-{2-[2-(1H-indazol-3-yl)vinyl]-5-(4-methylpiperazin-1-ylmethyl)phenyl}-3-methylthiophene-2-carboxamide], the inhibition at 1 µM came out at 111% in the experiment with KMS-11 (1 μmol/L, 72 hours) and 118% with NCI-H929 (1 μmol/L, 72 hours). Besides, at IGF-1R (setting [1]), the inhibition at 10 µM stood at 102%.
The corresponding values for `COCCCN1CCN(Cc2ccc(/C=C/c3n[nH]c4ccccc34)c(NC(=O)c3sccc3C)c2)CC1` [Compound 304, (E)-N-{2-[2-(1H-indazol-3-yl)vinyl]-5-[4-(3-methoxypropyl)piperazin-1-ylmethyl]phenyl}-3-methylthiophene-2-carboxamide] are 105%, 115% and 102%.
Turning to `O=C(Nc1ccccc1/C=C/c1n[nH]c2ccccc12)c1cscn1` [Compound 36, (E)-N-{2-[2-(1H-indazol-3-yl)vinyl]phenyl}thiazole-4-carboxamide], the inhibition at 10 µM in the experiment with KMS-11 (72 hours) was determined as 116%; with NCI-H929 (72 hours), 112%; on IGF-1R (setting [1]), 98.6%.
Taken in the same sequence, the figures for `O=C(Nc1ccccc1/C=C/c1n[nH]c2ccccc12)c1ccc[nH]1` [Compound 42, (E)-N-{2-[2-(1H-indazol-3-yl)vinyl]phenyl}-1H-pyrrole-2-carboxamide] were 109%, 126% and 98.9%.
Turning to `Cn1cccc1C(=O)Nc1cc(CN2CCNCC2)ccc1/C=C/c1n[nH]c2ccccc12` [Compound 332], the “cytostatic rate (%) KMS-11 (1 μmol/L)” value in the experiment with KMS-11 (setting [2]) came out at 89.9%. Moreover, the “cytostatic rate (%) H929 (1 μmol/L)” value in the experiment with NCI-H929 (setting [3]) was 113.9%. Also, on IGF-1R (setting [1]), the “inhibitory activity (%) at 10 μmol/L” value is 102.6%.
Turning to `Cc1ccsc1C(=O)Nc1cc(F)ccc1/C=C/c1n[nH]c2ccccc12` [Compound 265, (E)-N-{5-fluoro-2-[2-(1H-indazol-3-yl)vinyl]phenyl}-3-methylthiophene-2-carboxamide], the inhibition at 1 µM is 96.9% in the experiment on KMS-11 (1 μmol/L, 72 hours) and 115% in the experiment on NCI-H929 (1 μmol/L, 72 hours). At IGF-1R (setting [1]), the inhibition at 10 µM was 98.4%.
Turning to `CN(C)C(=O)c1ccc(/C=C/c2n[nH]c3ccccc23)c(N2C(=O)c3cccc(N)c3C2=O)c1` [Compound 326, (E)-3-(4-amino-1,3-dioxo-1,3-dihydroisoindol-2-yl)-4-[2-(1H-indazol-3-yl)vinyl]-N,N-dimethylbenzamide], the inhibition at 1 µM in the experiment on KMS-11 (setting [2]) stood at 102%; with NCI-H929 (setting [3]) it was 118%. For the same compound, at IGF-1R (setting [1]), the inhibition at 10 µM was 103%.
As to `O=C(Nc1ccccc1/C=C/c1n[nH]c2ccccc12)c1ccco1` [Compound 11, (E)-N-{2-[2-(1H-indazol-3-yl)vinyl]phenyl}furan-2-carboxamide], the inhibition at 10 µM was determined as 120% in the experiment with KMS-11 (72 hours), 116% in the experiment on NCI-H929 (72 hours) and 99.4% at IGF-1R (setting [1]).
The corresponding values for `COc1ccc(C(=O)Nc2ccccc2/C=C/c2n[nH]c3ccccc23)cc1` [Compound 4, (E)-N-{2-[2-(1H-indazol-3-yl)vinyl]phenyl}-4-methoxybenzamide] are 130%, 114% and 98.5%.
The corresponding values for `Nc1ccc(C(=O)Nc2ccccc2/C=C/c2n[nH]c3ccccc23)s1` [Compound 56, (E)-5-amino-N-{2-[2-(1H-indazol-3-yl)vinyl]phenyl}thiophene-2-carboxamide] are 134%, 116% and 99.3%.
With `Cc1ccsc1C(=O)Nc1cc(C(=O)N2CCN(CCO)CC2)ccc1/C=C/c1n[nH]c2ccccc12` [Compound 281, (E)-N-{5-[4-(2-hydroxyethyl)piperazin-1-ylcarbonyl]-2-[2-(1H-indazol-3-yl)vinyl]phenyl}-3-methylthiophene-2-carboxamide], the inhibition at 1 µM with KMS-11 (1 μmol/L, 72 hours) worked out at 115%; in the experiment on NCI-H929 (1 μmol/L, 72 hours), 128%. At IGF-1R (setting [1]), the inhibition at 10 µM was determined as 97.2%.
Consider `Cn1cccc1C(=O)Nc1cc(N(CCO)CCN2CCOCC2)ccc1/C=C/c1n[nH]c2ccccc12` [Compound 308, (E)-{5-[N-(2-hydroxyethyl)-2-(morpholin-4-yl)ethylamino]-2-[2-(1H-indazol-3-yl)vinyl]phenyl}-1-methyl-1H-pyrrole-2-carboxamide], for which the “cytostatic rate (%) KMS-11 (1 μmol/L)” value in the experiment on KMS-11 (setting [2]) stood at 128.1%. Moreover, the “cytostatic rate (%) H929 (1 μmol/L)” value with NCI-H929 (setting [3]) worked out at 118.3%. Moreover, the “inhibitory activity (%) at 10 μmol/L” value on IGF-1R (setting [1]) worked out at 99.1%.
On to `COc1cccc(/C=C/c2n[nH]c3ccccc23)c1NC(=O)c1sccc1C` [Compound 94, (E)-N-{2-[2-(1H-indazol-3-yl)vinyl]-6-methoxyphenyl}-3-methylthiophene-2-carboxamide], for which the values for the inhibition at 10 µM in the experiment with KMS-11 (72 hours), with NCI-H929 (72 hours) and against IGF-1R were 143%, 125% and 95.4%, respectively.
On to `CC(=O)N1CCN(Cc2ccc(/C=C/c3n[nH]c4ccccc34)c(NC(=O)c3sccc3C)c2)CC1` [Compound 269, (E)-N-{5-(4-acetylpiperazin-1-ylmethyl)-2-[2-(1H-indazol-3-yl)vinyl]phenyl}-3-methylthiophene-2-carboxamide], for which the inhibition at 1 µM with KMS-11 (1 μmol/L, 72 hours) turned out to be 132%; in the experiment on NCI-H929 (1 μmol/L, 72 hours), 119%. On IGF-1R (setting [1]), the inhibition at 10 µM amounted to 101%.
For `COc1c(OCCN2C(=O)CNC2=O)ccc(/C=C/c2n[nH]c3ccccc23)c1NC(=O)c1sccc1C` [Compound 334, (E)-N-{6-[2-(1H-indazol-3-yl)vinyl]-2-methoxy-3-[2-(2,5-dioxoimidazolidin-1-yl)ethoxy]phenyl}-3-methylthiophene-2-carboxamide], the inhibition at 1 µM with KMS-11 (setting [2]) stood at 97.5%; in the experiment on NCI-H929 (setting [3]), 111%. Moreover, the inhibition at 10 µM on IGF-1R (setting [1]) was determined as 102%.
Turning to `COc1cc(/C=C/c2n[nH]c3ccccc23)c(NC(=O)c2sccc2C)cc1OC` [Compound 95, (E)-N-{2-[2-(1H-indazol-3-yl)vinyl]-4,5-dimethoxyphenyl}-3-methylthiophene-2-carboxamide], the inhibition at 10 µM with KMS-11 (72 hours) was 138%; with NCI-H929 (72 hours), 121%; on IGF-1R it was 97.2%.
